In brackets after ≈: the same amount, converted by molar mass. Where two headings read alike, the source gives them in different places. Marks after values point to notes of the source that are not given here.
Columns and labels:
Lactobacillus gasseri = assay: microbe, parasite or virus in culture; format: cell-based
Clostridium difficile = assay: microbe, parasite or virus in culture; format: cell-based; conditions: Clostridioides difficile
Rhodococcus opacus = assay: microbe, parasite or virus in culture; format: cell-based
Bacillus subtilis = assay: microbe, parasite or virus in culture; format: cell-based
[1] = system: E. coli strains harboring the indicated amino acid at SPase residue 84
[2] = system: E. coli strains harboring the indicated amino acid at SPase residue 84; assay: MIC for E. coli strains with mutant SPase residue 84; conditions: for MIC: Escherichia coli
Clostridium perfringens = assay: microbe, parasite or virus in culture; format: cell-based
Yersinia pestis = assay: microbe, parasite or virus in culture; format: cell-based
Lactococcus lactis = format: cell-based
Streptococcus pyogenes = assay: microbe, parasite or virus in culture; format: cell-based
Prevotella copris = assay: microbe, parasite or virus in culture; format: cell-based
[3] = system: Lactobacillus acidophilus; assay: microbe, parasite or virus in culture; format: cell-based
Staphylococcus aureus = format: cell-based; conditions: S. aureus mutant, Pro^29 replaced by Ser
Streptococcus agalactiae = assay: microbe, parasite or virus in culture; format: cell-based
[4] = system: Staphylococcus haemolyticus; assay: microbe, parasite or virus in culture; format: cell-based
Lactobacillales = assay: organism not typed; format: cell-based
Lactobacillus plantarum = assay: microbe, parasite or virus in culture; format: cell-based; conditions: Lactiplantibacillus plantarum
Helicobacter pylori = assay: microbe, parasite or virus in culture; format: cell-based
Clostridium bolteae = assay: microbe, parasite or virus in culture; format: cell-based; conditions: Enterocloster bolteae
[5] = system: Staphylococcus epidermidis; assay: microbe, parasite or virus in culture; format: cell-based
[6] = system: Corynebacterium glutamicum; assay: microbe, parasite or virus in culture; format: cell-based
Enterococcus faecalis = conditions: cited from earlier work
Streptococcus pneumoniae = assay: microbe, parasite or virus in culture; format: cell-based
Escherichia coli = assay: microbe, parasite or virus in culture; format: cell-based
Pseudomonas aeruginosa = assay: microbe, parasite or virus in culture; format: cell-based
Bacteroides fragilis = assay: microbe, parasite or virus in culture; format: cell-based
[7] = system: Clostridia and Bacteriodetes; assay: MIC, Clostridia and Bacteriodetes; format: cell-based
Klebsiella pneumoniae = assay: microbe, parasite or virus in culture; format: cell-based
Chlamydia trachomatis = assay: microbe, parasite or virus in culture; format: cell-based
[8] = system: Corynebacterium efficiens; assay: microbe, parasite or virus in culture; format: cell-based
Brevibacillus brevis = assay: microbe, parasite or virus in culture; format: cell-based

Q: Which results are given for `CCCCCCCCCCCCCCCC(=O)N(C)[C@H](CO)C(=O)N[C@H](C)C(=O)NCC(=O)N(C)[C@@H]1C(=O)N[C@@H](C)C(=O)N[C@H](C(=O)O)Cc2ccc(O)c(c2)-c2cc1ccc2O` [arylomycin C16]?
A: MIC (Lactobacillus gasseri): > 128 µg/mL; MIC (Clostridium difficile): > 16 µg/mL; MIC (Rhodococcus opacus): 2 µg/mL (≈ 2.27 µM); MIC (Bacillus subtilis): > 128 µg/mL; decrease of MIC on permeabilizing with polymyxin B nonapeptide [1]: ≤ 4 fold; sensitivity of Pro to Ser SPase mutant strain ([2]; E. coli mutant, Pro^84 replaced by Ser): high degree of sensitivity; MIC ([2]; His at SPase residue 84 (temperature sensitive phenotype)): 4 µg/mL (≈ 4.54 µM); MIC ([2]; Phe at SPase residue 84 (temperature sensitive phenotype)): 2 µg/mL (≈ 2.27 µM); MIC ([2]; Pro at SPase residue 84, detection limit 256 μg/ml): > 256 µg/mL; MIC ([2]; read-out: MICs, all of the other amino acids (not Pro) at SPase residue 84): ≤ 16 µg/mL; MIC (Clostridium perfringens): > 16 µg/mL; MIC (Yersinia pestis): 4 µg/mL (≈ 4.54 µM); MIC (Lactococcus lactis): 16, >128 ^a μg/ml; MIC (Streptococcus pyogenes): 16 µg/mL (≈ 18.2 µM); MIC (Prevotella copris): > 16 µg/mL; MIC [3]: > 128 µg/mL; sensitivity of Pro to Ser SPase mutant strain (Staphylococcus aureus): high degree of sensitivity; MIC (Streptococcus agalactiae): > 128 µg/mL; MIC [4]: 2 µg/mL (≈ 2.27 µM); MIC (Lactobacillales): > 64 µg/mL; MIC (Lactobacillus plantarum): > 128 µg/mL; MIC (Helicobacter pylori): 4 µg/mL (≈ 4.54 µM); MIC (Clostridium bolteae): > 16 µg/mL; MIC ([5]; Staphylococcus epidermidis): 0.25 µg/mL (≈ 0.284 µM); elevated MIC compared to the wild type strain ([5]; resistant mutants (remainder), SpsIB Ser to Pro at position 31): greater than 256 fold; elevated MIC compared to the wild type strain ([5]; resistant mutants (~75%), SpsIB Ser to Pro at position 29): 32 fold; MIC [6]: 2 µg/mL (≈ 2.27 µM); MIC (Enterococcus faecalis): >64 ^b μg/ml; MIC (Streptococcus pneumoniae): 16 µg/mL (≈ 18.2 µM); MIC (Escherichia coli): > 128 µg/mL; decrease of MIC on permeabilizing with polymyxin B nonapeptide (Pseudomonas aeruginosa; P. aeruginosa Pro to Ser mutant): ≤ 4 fold; sensitivity of Pro to Ser SPase mutant strain (Pseudomonas aeruginosa; P. aeruginosa mutant, Pro^84 replaced by Ser): high degree of sensitivity; MIC (Pseudomonas aeruginosa; Pseudomonas aeruginosa): > 128 µg/mL; MIC (Bacteroides fragilis): > 16 µg/mL; MIC [7]: > 16 µg/mL; MIC (Klebsiella pneumoniae): > 128 µg/mL; MIC (Chlamydia trachomatis): 6 µg/mL (≈ 6.81 µM); MIC [8]: > 64 µg/mL; MIC (Brevibacillus brevis): > 64 µg/mL
